# Laboratory results from patent US20200129582A1, “NOVEL PEPTIDES AND PEPTIDOMIMETICS” (UNIVERSITY OF AUCKLAND, priority 2016, published 2020).
# Several values for one entry are separate records, joined by “and”; a condition that tells them apart may be missing. Equal values may be shown once. Read-outs that look alike come from different tables or passages of the source.
# What was measured:
# [1] = target: T1, Connexin43 plaques in ARPE-19 cells (Homo sapiens, UniProt P17302); assay: Immunocytochemistry and quantification of Cx43 plaques; type: cell-based; settings: for total Connexin43 expression reduced by, relative to the control: 500 μM; for Connexin43 labelling per cell compared to untreated control (in words): 2- or 6-hour treatment, Peptide5 50-500 μM, LaCl3 and CBX 500 μM; for distribution of Connexin43 plaques: Peptide5 500 μM, FIG. 1A
# T1 construct: a cell line with high endogenous expression of connexin43; endogenous in cells; host or cells: ARPE-19
# Experimental: (§1) ARPE-19 cells were grown until confluent in 8-well glass chamber-slides (BD Falcon). Confluent monolayers of ARPE-19 cells were incubated at a final concentration of 50 to 500 μM Peptide5, 500 μM LaCl3 and 500 μM CBX in culture medium for 2 or 6 hours. Cells were fixed in 4% PFA (ProSciTech) at pH 7.4 for 10 min at room temperature, permeabilized with 0.05% Triton-X100 in PBS, and incubated in 10% normal goat serum to block non-specific labelling. Cells were rinsed three times with PBS containing 0.1 mM CaCl2 between each fixation, permeabilization, and blocking steps. Connexin43 polyclonal rabbit antibody (C6219, Sigma, 1:2000) was applied overnight, followed by a goat anti-rabbit Alexa Fluor® 568 secondary antibody (Invitrogen, 1:200) for 45 minutes. Nuclei were counterstained with DAPI (Invitrogen) at 10,000-fold dilution for 5 mins, and mounted with Citifluor™ mounting medium. Images were visualised and captured using an oil immersion lens (60× magnification, 1.35 numerical aperture) on an Olympus FV1000 upright confocal laser scanning microscope and Olympus FV10-ASW 4.0 software. The Transfluor feature in MetaXpress® Image acquisition and analysis software (Version 5.3.0.1, Molecular Devices) was used to quantify the total area of Connexin43 plaques per image.
# as §1
# [2] = target: T2, hemichannel-mediated ATP release from hCMVEC cells (Homo sapiens, UniProt P17302); assay: In vitro ischemia injury ATP release assay (single alanine substituted and truncated peptides); type: cell-based
# T2 construct: endogenous in cells; host or cells: hCMVEC (human cerebral microvascular endothelial cells)
# Experimental: The human cerebral endothelial cells (hCMVEC) were plated at a density of 0.025×10^6 cells per well in a collagen-coated 12-well plate (1 μg/cm^2) a day prior to the experiment. Cells were incubated in culture medium overnight. Hypoxic, acidic, ion-shifted Ringer injury solution that mimics ionic concentrations and acid-base shifts of the interstitial space in hypoxic-ischemic brains (Bondarenko and Chesler, 2001, […]) was used to trigger hemichannel opening. The injury solution contained (in mM): 38 NaCl, 13 NaHCO3, 3 Na-gluconate, 65 K-gluconate, 38 NMDG-Cl, 1 NaH2PO4, and 1.5 MgCl2. The injury solution was bubbled in 95% N2, 5% CO2 gas (20 L/min) for 5 minutes and pH adjusted to 6.6 before use. The standard ringer solution contained (in mM): 124 NaCl, 3 KCl, 26 NaHCO3, 26 NaHCO3, 1 NaH2PO4, 1.3 CaCl2, 1.5 MgCl2, and 10 Glucose, and pH adjusted to 7.4 before use (Bondarenko and Chesler, 2001). In the ischemia injury model, hCMVEC cells were incubated for 2 hours in 500 μL injury solution+/−Peptide5 (100 μM) (O'Carroll et al., 2008, Cell communication & adhesion 15:27-42; Danesh-Meyer et al., 2012, Brain: a journal of neurology 135:506-520; Davidson et al., 2012, Annals of neurology 71:121-132; Davidson et al., 2013, Experimental neurology 248:301-308; Davidson et al., 2014, PloS one 9:e96558; Davidson et al., 2015, J Cereb Blood Flow Metab), or +/−extracellular loop sequences (Table 5), or modified peptides (Table 2, 3) dissolved in injury solution (500 μL) with a final concentration of 100 μM. For negative control, hCMVEC cells were incubated only in 500 μL standard ringer solution for 2 hours. For positive control, hCMVEC cells were incubated only in 500 μL […] for 2 hours. All incubations were conducted at 37° C. in 95% O2 and 5% CO2. At the end of each experiment, samples were removed and immediately placed on ice. The concentration of ATP in the samples was determined using a Luciferin/luciferase bioluminescence reaction (ATP Determination Kit, Molecular Probes) and detected using a luminescence plate reader (VICTOR X, Perkin Elmer #2030-0010). Standard curves were generated in each experiment from an ATP standard (0 to 500 nM) to convert bioluminescence units to ATP concentration. […] The data is presented as mean±standard error relative to the injury or injury-reperfusion positive control. Statistically significant differences between samples were tested using one-way analysis of variance and Tukey's multiple comparisons test.
# Peptides listed in table 5 and 2 were assessed using the ischemia injury model in hCMVEC cells as described above, and the medium was collected for ATP release measurement.
# The human cerebral endothelial cells (hCMVEC) were plated at a density of 0.025×10^6 cells per well in a collagen-coated 12-well plate (1 μg/cm^2) a day prior to the experiment. Cells were incubated in culture medium overnight. Hypoxic, acidic, ion-shifted Ringer injury solution that mimics ionic concentrations and acid-base shifts of the interstitial space in hypoxic-ischemic brains (Bondarenko and Chesler, 2001) was used to trigger hemichannel opening. The injury solution contained (in mM): 38 NaCl, 13 NaHCO3, 3 Na-gluconate, 65 K-gluconate, 38 NMDG-Cl, 1 NaH2PO4, and 1.5 MgCl2. The injury solution was bubbled in 95% N2, 5% CO2 gas (20 L/min) for 5 minutes and pH adjusted to 6.6 before use. The standard ringer solution contained (in mM): 124 NaCl, 3 KCl, 26 NaHCO3, 26 NaHCO3, 1 NaH2PO4, 1.3 CaCl2, 1.5 MgCl2, and 10 Glucose, and pH adjusted to 7.4 before use (Bondarenko and Chesler, 2001).
# T2 sequence (P17302 2-382 limits assumed): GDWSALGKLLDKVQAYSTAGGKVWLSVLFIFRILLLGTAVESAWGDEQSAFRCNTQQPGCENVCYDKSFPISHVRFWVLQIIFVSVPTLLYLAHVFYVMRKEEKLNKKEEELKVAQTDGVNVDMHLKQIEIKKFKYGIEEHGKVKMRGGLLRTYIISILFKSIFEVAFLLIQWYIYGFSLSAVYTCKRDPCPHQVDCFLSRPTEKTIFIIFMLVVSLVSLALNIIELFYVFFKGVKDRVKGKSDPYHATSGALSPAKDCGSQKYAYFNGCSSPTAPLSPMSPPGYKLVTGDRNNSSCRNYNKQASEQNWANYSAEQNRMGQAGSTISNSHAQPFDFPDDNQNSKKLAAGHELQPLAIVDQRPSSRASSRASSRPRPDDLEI
# T1 sequence (P17302 2-382 limits assumed): as above
Compound,"total Connexin43 expression reduced by, relative to the control ([1]; 2-hour exposure)","total Connexin43 expression reduced by, relative to the control ([1]; after 6 hours)",Connexin43 labelling per cell compared to untreated control (in words) [1],"ATP release compared to injury control (in words) ([2]; hCMVEC, 100 μM, FIG. 3)","ATP release, % of the injury control ([2]; hCMVEC, ischemic injury solution 2 hours, 100 μM, FIG. 3, injury control 100±3.6%)",distribution of Connexin43 plaques ([1]; 2-hour exposure),distribution of Connexin43 plaques ([1]; 6-hour exposure),ATP release compared to injury control (in words) [2],"ATP release, % of the injury control [2]"
"CC1(C)[C@@H](OC(=O)CCC(=O)O)CC[C@]2(C)[C@H]3C(=O)C=C4[C@@H]5C[C@@](C)(C(=O)O)CC[C@]5(C)CC[C@@]4(C)[C@]3(C)CC[C@@H]12 [CBX, Carbenoxolone]",30.0±8.2%,53.4±8.1%,significant reduction,significantly reduced ATP release,9.1±10.1%,–,–,–,–
VDCFLSRPTEKT [Peptide5],–,–,no significant difference,–,–,patterns of cytoplasmic streaming,fragmented,significantly reduced ATP release,44.6±7.7% and 47.3±5.1%
